In patent publication US4965280A, “Antifungal carbinols” (E. I. Du Pont de Nemours and Company, priority 1989, dated 1990):
Converted amounts (≈) assume the structure as drawn. Like-named read-outs stand apart in the source and are kept apart here.

How the values were obtained:
[1] = test system: Botrytis cinerea; assay: Example C bean grey mold; format: in vivo; details: Botrytis cinerea, 24 h, 100 PPM; read-out: disease control rating, Ex. C
Summary of the method: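 At 20 or 100 ppm, each compound was applied as an aqueous suspension (acetone 6% final; TREM 014 250 ppm) sprayed onto young broad bean plants to the point of run-off.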

[2] = test system: Candida albicans ATCC 11651; assay: In vitro antifungal MIC, microtiter broth dilution; details: for MIC: Candida albicans, ATCC11651, 24 h, read-out: MIC values, C. albicans, 30°, 24 hours
[3] = test system: Rhizoctonia solani; assay: Example K cotton blight; format: in vivo; details: 336 h, 5 kg/ha, read-out: disease control rating, Ex. K
Protocol: […] Seeds and soil were then inoculated with a mixture of sand, cereal and mycelium of the fungus Rhizoctonia solani, causal agent of cotton blight, and incubated in a growth chamber at 30° C. for 14 days. Disease ratings were then made.

[4] = test system: Puccinia recondita; assay: Example G wheat leaf rust; format: in vivo; details: 100 PPM, read-out: disease control rating, Ex. G
[5] = test system: Aspergillus fumigatus ATCC 28214; assay: In vitro antifungal MIC, microtiter broth dilution; details: for MIC: Aspergillus fumigatus, ATCC28214, 24 h, read-out: MIC values, A. fumigatus, 30°, 24 hours
[6] = test system: Candida albicans ATCC 11651; assay: In vivo systemic Candida infection in mice, primary assay; design: species or system Candida albicans; CF-1 female mice; details: Candida albicans, 150 mg/kg per day, read-out: % Survival
Summary of the method: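 CF-1 female mice (20 g, 10 per group) were infected IV with 0.2 ml of 1×10^7/ml C. albicans ATCC 11651, then given test compound subcutaneously at 50 or 150 mg/kg/day at 1 and 6 h post-infection and once daily for three more days. Survival was followed for 21 days against infected untreated mice; ≥70% protection at 14 days was scored active.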

[7] = test system: Fusarium oxysporum f. sp. cucumerinum; assay: Example L cucumber wilt; format: in vivo; details: 336 h, 5 kg/ha, read-out: disease control rating, Ex. L
Protocol: […] Seeds and soil were then inoculated with a mixture of sand, cereal and mycelium of the fungus Fusarium oxysporum f. sp. cucumerinum, causal agent of cucumber wilt, and incubated in a growth chamber at 30° C. for 14 days. Disease ratings were then made.

[8] = test system: Pyricularia oryzae; assay: whole plant or invertebrate; format: in vivo; details: Pyricularia oryzae, 120 h, read-out: disease control rating, Ex. E, 100 PPM
[9] = test system: Phytophthora infestans; assay: whole plant or invertebrate; format: in vivo; details: Phytophthora infestans, in Solanum lycopersicum, read-out: disease control rating, Ex. H, 100 PPM
[10] = test system: Pythium aphanadermatum; assay: Example J cucumber damping off; format: in vivo; details: Pythium, 336 h; 5 kg/ha; read-out: disease control rating, Ex. J
Summary of the method: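 Seeds and soil were inoculated with a mix of sand, cereal and Pythium aphanadermatum mycelium, the fungus responsible for cucumber damping off. They were kept in a growth chamber at 30° C. for 14 days, and disease was then rated to assess control.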

[11] = test system: Rhizoctonia solani; assay: Example F rice sheath blight; format: in vivo; details: Rhizoctonia solani, 144 h, 100 PPM; read-out: disease control rating, Ex. F
Summary of the method: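 Application rates were 100 or 20 ppm, delivered as a foliar spray to the point of run-off on rice seedlings. The formulation used 6% acetone in water with 250 ppm surfactant.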

[12] = test system: Cercosporidium personatum; assay: Example B Peanut Late Leafspot; format: in vivo; details: Nothopassalora personata; 100 PPM; read-out: disease control rating, Ex. B
Summary of the method: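 Dose 100 or 20 ppm; vehicle acetone 6% v/v final in water + 250 ppm surfactant; applied by spraying peanut seedlings to run-off.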

[13] = test system: Plasmorpara viticola; assay: Example I grape downy mildew; format: in vivo; details: read-out: disease control rating, Ex. I
Summary of the method: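 First, each compound is taken up in acetone amounting to 6% of the final volume. It is then suspended in purified water containing 250 ppm of the polyhydric alcohol ester surfactant TREM 014, at 100 or 20 ppm. Finally, the suspension is sprayed onto grape seedlings until run-off.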

[14] = test system: Sclerotium rolfsii; assay: Example M southern blight; format: in vivo; details: Agroathelia rolfsii, 336 h; 5 kg/ha; read-out: disease control rating, Ex. M
Protocol: […] Seeds and soil were then inoculated with a mixture of sand, cereal and mycelium of the fungus Sclerotium rolfsii, causal agent of sourthern blight, and incubated in a growth chamber at 30° C. for 14 days. Disease ratings were then made.

[15] = test system: Erysiphe graminis f. sp. tritici; assay: Example D wheat powdery mildew; format: in vivo; details: Blumeria graminis, 144 h; 100 PPM; read-out: disease control rating, Ex. D
Summary of the method: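 First, compound taken up in acetone, 6% of the end volume. Next, suspended in water with 250 ppm polyhydric alcohol esters at 100 or 20 ppm. Last, applied to wheat seedlings until run-off.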

[16] = test system: Venturia inaequalis; assay: Example A apple scab; format: in vivo; details: 100 PPM, read-out: disease control rating, Ex. A
Summary of the method: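 First, compounds are taken up in acetone amounting to 6% of the final volume. Next, they are suspended in purified water with 250 ppm TREM 014 at 100 or 20 ppm. Finally, seedlings of apple are sprayed until run-off.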

Row | SMILES | pest or weed control at 100 ppm [1] [%] | MIC values, C. albicans ([2]; 30°, 24 hours) [µg/mL] | pest or weed control at 5000 g/ha [3] [%] | pest or weed control at 100 ppm [4] [%] | MIC values, A. fumigatus ([5]; 30°, 24 hours) [µg/mL] | responders at 150 mg/kg ([6]; ATCC11651, 168 h, day 7) [%] | responders at 150 mg/kg ([6]; ATCC11651, 336 h, day 14) [%] | responders at 150 mg/kg ([6]; ATCC11651, 504 h, day 21) [%] | pest or weed control at 5000 g/ha [7] [%] | pest or weed control at 100 ppm [8] [%] | pest or weed control at 100 ppm [9] [%] | pest or weed control at 5000 g/ha [10] [%] | pest or weed control at 100 ppm [11] [%] | pest or weed control at 100 ppm [12] [%] | pest or weed control at 100 ppm [13] [%] | pest or weed control at 5000 g/ha [14] [%] | pest or weed control at 100 ppm [15] [%] | pest or weed control at 100 ppm [16] [%] | MIC [2] [µg/mL] | MIC [5] [µg/mL]
1 | C=C(c1ccc(Cl)cc1)C(O)(Cn1cncn1)c1ccc(Cl)cc1Cl (centres unmarked) [Example 26, 2-(2,4-Dichlorophenyl)-3-(4-chlorophenyl)-1-(1H-1,2,4-triazol-1-yl)-3-buten-2-ol] | 96 | ≤ 0.4 | 25 | 97 | 12.5 (≈ 31.7 µM) | 100 | 100 | 100 | 25 | 31 | 23 | 0 | 61 | 100 | 86 | 35 | 86 | 100 | – | –
2 | C=C(c1ccc(Cl)cc1)C(O)(Cn1cncn1)c1ccc(Cl)cc1 (centres unmarked) [Example 27] | 88 | – | 0 | 100 | – | 100 | 100 | 100 | 0 | 95 | 24 | 0 | 100 | 100 | 84 | 0 | 98 | 62 | ≤ 0.4 | 12.5 (≈ 34.7 µM)
3 | C=C(c1ccc(Cl)cc1)C(O)(Cn1cncn1)c1ccc(F)cc1F (centres unmarked) [Example 28, 2-(2,4-Difluorophenyl)-3-(4-chlorophenyl)-1-(1H-1,2,4-triazol-1-yl)-3-buten-2-ol] | 88 | – | 0 | 100 | – | 100 | 90 | – | 0 | 81 | 0 | 0 | 100 | 100 | 6 | 0 | 98 | 89 | 0.03 (≈ 0.0829 µM) | 1.6 (≈ 4.42 µM)
4 | C=C(c1ccccc1Cl)C(O)(Cn1cncn1)c1ccc(Cl)cc1 (centres unmarked) [Example 34] | 94 | – | 0 | 66 | – | 100 | 100 | 100 | 0 | 86 | 0 | 0 | 16 | 100 | 0 | 0 | 60 | 69 | 0.03 (≈ 0.0833 µM) | 3.2 (≈ 8.88 µM)
5 | C=C(c1cccc(Cl)c1)C(O)(Cn1cncn1)c1ccc(F)cc1 (centres unmarked) [Example 39] | 96 | – | 0 | 100 | – | 100 | 80 | – | 0 | 7 | 0 | 0 | 100 | 97 | 81 | 0 | 98 | 89 | 0.4 (≈ 1.16 µM) | 25 (≈ 72.7 µM)
6 | C=C(c1cccc(Cl)c1)C(O)(Cn1cncn1)c1ccc(Cl)cc1Cl (centres unmarked) [Example 40, 2-(2,4-Dichlorophenyl)-3-(3-chlorophenyl)-1-(1H-1,2,4-triazol-1-yl)-3-buten-2-ol] | 80 | – | 0 | 96 | – | 100 | 100 | – | 0 | 7 | 0 | 0 | 61 | 100 | 0 | 0 | 91 | 19 | 0.4 (≈ 1.01 µM) | 3.2 (≈ 8.11 µM)
7 | C=C(c1cccc(Cl)c1)C(O)(Cn1cncn1)c1ccc(Cl)cc1 (centres unmarked) [Example 41] | 96 | – | 0 | 100 | – | 100 | 100 | – | 0 | 7 | 0 | 0 | 97 | 100 | 100 | 0 | 98 | 100 | 0.4 (≈ 1.11 µM) | 50 (≈ 139 µM)
8 | C=C(c1ccc(C(F)(F)F)cc1)C(O)(Cn1cncn1)c1ccc(F)cc1 (centres unmarked) [Example 65] | 94 | – | 0 | 100 | – | 100 | 70 | 50 | 0 | 30 | 0 | 0 | 62 | 96 | 0 | 0 | 85 | 34 | 0.2 (≈ 0.53 µM) | 100 (≈ 265 µM)
